Data published in patent US7098304B1, “Assay for the diagnosis of schizophrenia based on a new peptide” (Yeda Research and Development Co. Ltd., priority 1998, dated 2006).

Columns and labels:
[1] = system: SDAs as compared to NSDAs; assay: Binding activity of peptides line-blotted onto PVDF to SDAs as compared to NSDAs; design: species or system human; key to Activity: showed a substantially higher binding activity to SDAs as compared to their binding to NSDAs (indicated as YES in the table); No: showed no significant differences in their binding to samples from schizophrenic and non-schizophrenic individuals (designed as no in the table); settings: for Activity: binding to SDAs versus NSDAs
Procedure: (§1) 1. Platelets and Anti-Platelet Autoantibodies Venous blood (20 ml) was drawn with heparin as anticoagulant from patients and control subjects. Platelet rich plasma (PRP) was obtained by centrifugation (100 g for 20 mins) at room temperature. Plasma free platelets were obtained by washing them three times with phosphate buffered saline (PBS) supplemented with 10 ml mM EDTA as anticoagulant (4000 g; 15 mins; 4° C.). For the isolation of anti-platelet antibodies, the platelets were incubated with 0.1 M glycine/10 mM EDTA, pH 2.8, for 10 min. at room temperature and then centrifuged (4000 g; 15 min; 4° C.). The supernatant containing the anti-platelet antibodies, was neutralized with saturated Na2PO4 solution and stored at −20 until use. 2. Preparative Isoelectric Focusing
(§2) The fractions were analyzed for immuno-reactivity by polyacrylamide (10%) gel electrophoresis, blotting the proteins onto PVDF membranes and probing the membrane with 1 ml auto-antibodies in 50 ml incubation buffer. Anti-human Fc conjugated to horseradish peroxidase (goat) from SIGMA (1:500 dilution) and Fast-DAB™ (SIGMA) or 4-Chloro-naphthol (SIGMA) were used as color reagent in order to detect bound human anti-platelet antibodies.
(§3) Various peptides were synthesized on Abimed 522 at a 10 micromol scale by Eurosequence b.v. Peptides were routinely dissolved in 1 ml water/DMF/DMSO (1:1:1;v/v/v). Peptides were line-blotted onto PVDF membranes and tested for immuno-reactivity as described above.
Based on the sequence of the epitope identified in the digested proteins, a number of peptides were synthesized by the method described in 1.8 above. The synthesized peptides were then evaluated for their binding activity to SDAs as compared to NSDAs as described above.

[2] = system: SDAs (schizophrenic derived antibodies); assay: Reactivity of proteins to SDAs (platelet autoantibodies from schizophrenic patients), blot with anti-human Fc-HRP; type: binding; settings: number of SDA samples that reacted positively with the enzyme, of 8 patients
Procedure: as §1, §2
(§4) Every fifth fraction (0.1 ml) was dot blotted onto PVDF membranes using the DotBlot device (96 wells) from BioRad. Immuno-reactive fractions were then detected as described above (1.3)
(§5) The binding activity of the above two enzymes was then tested by reacting them with SDAs (prepared from samples obtained from schizophrenic patients) and to NSDA (prepared from control non-schizophrenic individuals).

[3] = system: NSDAs (non-schizophrenic derived antibodies); assay: Reactivity of proteins to NSDAs (platelet autoantibodies from control non-schizophrenic individuals), blot with anti-human Fc-HRP; type: binding; settings: number of NSDA samples that reacted positively with the enzyme, of 8 controls
Procedure: as §1, §2, §4, §5

[4] = system: PAAs obtained from schizophrenic patients (SDA); assay: Binding of peptide to isolated PAAs from schizophrenic patients; design: species or system human
Procedure: as §1, §2
(§6) Various peptides were synthesized on Abimed 522 at a 10 micromol scale by Eurosequence b.v. Peptides were routinely dissolved in 1 ml water/DMF/DMSO (1:1:1;v/v/v). […]

[5] = system: PAAs obtained from non-schizophrenic individuals; assay: Binding of peptide to isolated PAAs from non-schizophrenic individuals; design: species or system human; settings: isolated PAAs from eight different non-schizophrenic individuals, FIG. 1B
Procedure: as §1, §2, §6

[6] = system: SDA in plasma samples obtained from schizophrenic patients; assay: Binding of peptide to plasma samples from schizophrenic patients; design: species or system human; settings: plasma samples of five schizophrenic patients, FIG. 2A
Procedure: as §2, §3
(§7) The capability of Peptide 14 (SEQ ID NO: 3) to bind SDA in plasma samples obtained from schizophrenic patients was then tested. […] Peptide 14 (SEQ ID NO: 10) was used as a negative control.

[7] = system: NSDA in plasma samples from non-schizophrenic individuals; assay: Binding of peptide to plasma samples from non-schizophrenic individuals; design: species or system human; settings: plasma samples of fifteen non-schizophrenic individuals, FIG. 2B
Procedure: as §2, §3, §7

**Q.** How did the Activity [1] turn out when “2 (SGETEDTFIADLVVGLCTGQIKTGAPCR; being the immunologically active epitope) [compound 2]” was run?
**A.** YES

**Q.** How did the Activity [1] turn out when “3 (LVVGLCTCQIKTGPAC; peptide capable of binding antibodies that are found in elevated levels in body fluids of schizophrenic patients.) [compound 3]” was run?
**A.** YES

**Q.** For “4 (IADLVVGLCTGQIKTGAPCR; peptide capable of binding antibodies that are found in elevated levels in body fluids of schizophrenic patients.) [compound 4]”, which Activity [1] is on record?
**A.** YES

**Q.** With “5 (ADLVVGLCTGQIKTGAPCR; peptide capable of binding antibodies that are found in elevated levels in body fluids of schizophrenic patients.) [compound 5]” as the substance, how does the Activity [1] read?
**A.** YES

**Q.** “6 (DLVVGLCTGQIKTGAPCR; peptide capable of binding antibodies that are found in elevated levels in body fluids of schizophrenic patients.) [compound 6]” was tested. Which Activity [1] did it give?
**A.** YES

**Q.** For “7 (LVVGLCTGQIKTGAPCR; peptide capable of binding antibodies that are found in elevated levels in body fluids of schizophrenic patients.) [compound 7]”, which Activity [1] is on record?
**A.** YES

**Q.** With “8 (LVVGLCTGQIKTGPACR; peptide capable of binding antibodies that are found in elevated levels in body fluids of schizophrenic patients.) [compound 8]” as the substance, how does the Activity [1] read?
**A.** YES

**Q.** With “9 (LVVGLCTPQIKTGPACR; peptide capable of binding antibodies that are found in elevated levels in body fluids of schizophrenic patients.) [compound 9]” as the substance, how does the Activity [1] read?
**A.** YES

**Q.** With “10 (SGETEDTFIADLVVGLCTGQ; peptide capable of binding antibodies that are found in elevated levels in body fluids of schizophrenic patients.) [compound 10]” as the substance, how does the Activity [1] read?
**A.** No

**Q.** Which Activity [1] does the source give for “11 (VVGLCTGQIKTGAPCR; peptide capable of binding antibodies that are found in elevated levels in body fluids of schizophrenic patients.) [compound 11]” here?
**A.** No

**Q.** For “12 (CTGQIKTGAPCR; peptide capable of binding antibodies that are found in elevated levels in body fluids of schizophrenic patients.) [compound 12]”, which Activity [1] is on record?
**A.** No

**Q.** Which Activity [1] does the source give for “13 (LVVGLCTGQIKTGAPC; peptide capable of binding antibodies that are found in elevated levels in body fluids of schizophrenic patients.) [compound 13]” here?
**A.** No

**Q.** For “15 (LVVGLCTGQIKTGPAC; peptide capable of binding antibodies that are found in elevated levels in body fluids of schizophrenic patients.) [compound 15]”, which Activity [1] is on record?
**A.** No

**Q.** “G-3-P-Dehydrogenase from chicken: glyceraldehyde-3-phosphate dehydrogenase (G3PD) enzyme from chicken” was tested. Which “Patients (n = 8) Positive” value [2] did it give?
**A.** 7/8

**Q.** What about the “Controls (n = 8) Positive” value [3] of the same substance?
**A.** 2/8

**Q.** Which “Patients (n = 8) Positive” value [2] does the source give for “G-3-P-Dehydrogenase from human: glyceraldehyde-3-phosphate dehydrogenase (G3PD) enzyme from human” here?
**A.** 7/8

**Q.** What about the “Controls (n = 8) Positive” value [3] of the same substance?
**A.** 1/8

**Q.** How did the “Patients (n = 8) Positive” value [2] turn out when “G-3-P-Dehydrogenase from pig: glyceraldehyde-3-phosphate dehydrogenase (G3PD) enzyme from pig” was run?
**A.** 8/8

**Q.** What about the “Controls (n = 8) Positive” value [3] of the same substance?
**A.** 1/8

**Q.** Which results are given for “LVVGLCTCQIKTGPAC (peptide capable of binding antibodies that are found in elevated levels in body fluids of schizophrenic patients.) [SEQ ID NO: 3]”?
**A.** ranking of binding to antibodies found in high levels in schizophrenic patients ([1]; among the synthesized peptides): most capable of binding; Activity [1]: No; PAAs from schizophrenic patients positively bound ([4]; isolated PAAs from eight different schizophrenic patients, FIG. 1A): seven out of eight; binding activity to SDA, dimer form versus non-dimer form ([4]; ring via two cysteins and dimer via free cystein after overnight in water/DMF/DMSO): the dimer form of the peptide was much more active in binding SDAs than the non-dimer form; binding to PAAs from non-schizophrenic individuals [5]: did not bind; SDA in plasma of schizophrenic patients positively bound [6]: four out of five; plasma samples of non-schizophrenic individuals whose NSDA was not bound [7]: fourteen out of fifteen

**Q.** For “SGETEDTFIADLVVGLCTGQIKTGAPCR (being the immunologically active epitope) [SEQ ID NO: 2]”, which “immunological activity of peptide from enzymatic digest of Enolase” value ([1]; binding SDAs to a higher extent than NSDAs, amino acids 372-399) is on record?
**A.** immunologically active
